For two compounds, content of hydrochlorothiazide and content of telmisartan results are on record in patent publication US20200181121A1, “Cocrystal of Telmisartan and Hydrochlorothiazide” (SHANGHAI INSTITUTE OF MATERIA MEDICA, CHINESE ACADEMY OF …, priority 2017, published 2020).

The series can be described thus: Accelerated stability test (ICH Q1E), change of the content. The class given is physicochemical. As to conditions: 40°C±2°C, RH 75±5%, polyethylene-sealed bag. The procedure:
According to the description in “Stability Data Evaluation” of ICH guidelines Q1E, a comparison of accelerated stability test (at 40° C.±2° C., RH 75±5%) of cocrystal of hydrochlorothiazide and telmisartan obtained in Example 1 with that of telmisartan or hydrochlorothiazide itself was conducted respectively. The cocrystal of telmisartan and hydrochlorothiazide, telmisartan, and hydrochlorothiazide were double packaged using the polyethylene-sealed bag respectively, stood for 1, 2 or 3 months under the accelerated stability test conditions (at 40° C.±2° C., RH 75±5%). Then the samples were taken and measured for the change of the content.

With `NS(=O)(=O)c1cc2c(cc1Cl)NCNS2(=O)=O` [Hydrochlorothiazide, 6-chloro-3,4-dihydro-2H-1,2,4-benzothiadiazine-7-sulfonamido-1,1-dioxide], the content of hydrochlorothiazide is, setting by setting: (0 month) 100%; (1 month) 97.37%; (2 months) 96.34%; (3 months) 95.28%.
`CCCc1nc2c(C)cc(-c3nc4ccccc4n3C)cc2n1Cc1ccc(-c2ccccc2C(=O)O)cc1` [Telmisartan, 4′-[[2-propyl-4-methyl-6(1-methyl-benzimidazol-2-yl)-benzimidazol-1-yl]methyl]-2-biphenylcarboxylic acid]: the content of telmisartan came to 100% (0 month), 97.28% (1 month), 94.47% (2 months) and 94.20% (3 months).
